Measurements taken from patent US10517889B2, “Modulators of SMAD7 expression” (Ionis Pharmaceuticals, Inc., priority 2017, dated 2019).
Strand notation (5' to 3'): a small letter for the sugar, then the base; units joined by * are phosphorothioate-linked, units joined directly phosphodiester-linked; [ ] holds rarer units or linkages, { } end groups; capitals alone tell only the bases. k = constrained ethyl (cEt); [5mC] = 5-methylcytosine; d = 2'-deoxy (DNA)

Each substance was assayed on human SMAD7 mRNA (assay: Antisense inhibition of human SMAD7 mRNA expression in Hep3B cells by 3-10-3 cEt gapmers, 10,000 nM, electroporation (Example 2)). Conditions: Hep3B cells, 10,000 nM antisense oligonucleotide, electroporation, approximately 24 hours, RT-PCR primer probe set RTS5062, relative to untreated control cells.
Format: cell-based
Outline: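 qRT-PCR (RTS5062) of SMAD7 mRNA, normalised to RIBOGREEN total RNA, gave percent inhibition relative to untreated controls. Hep3B cells at 20,000 per well received 10,000 nM oligonucleotide by electroporation, with ~24 h treatment.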

Substance | % Inhibition
800071 (antisense kT*kG*kT*dA*dT*dT*dT*dG*dT*dT*dA*dA*d[5mC]*kA*kA*kA) [compound 800071] | 2%
798928 (antisense kT*kA*kG*d[5mC]*dA*dG*d[5mC]*dA*dA*dA*dG*dT*dA*kG*kT*kT) [compound 798928] | 6%
799840 (antisense kA*kG*kG*dG*dA*dA*dG*dT*dT*dA*dG*dT*dG*kT*kT*kT) [compound 799840] | 22%
799995 (k[5mC]*kT*kG*dT*dG*dA*dG*dG*d[5mC]*dA*d[5mC]*dT*dT*kG*kG*kA; antisense) [compound 799995] | 63%
800032 (kG*kA*kA*dT*dT*d[5mC]*d[5mC]*d[5mC]*d[5mC]*dG*d[5mC]*d[5mC]*dA*kT*kT*kT; antisense) [compound 800032] | 0%
798891 (kG*k[5mC]*k[5mC]*d[5mC]*dT*dT*d[5mC]*dA*d[5mC]*dA*dA*dA*dG*k[5mC]*kT*kG; antisense) [compound 798891] | 58%
799950 (antisense kG*k[5mC]*kA*d[5mC]*dA*dA*dG*dT*d[5mC]*dA*d[5mC]*dT*dG*kG*k[5mC]*k[5mC]) [compound 799950] | 0%

Same assay, conditions: Hep3B cells, electroporation with 10,000 nM antisense oligonucleotide, approximately 24 hours, RTS5062, percent inhibition of SMAD7 mRNA relative to untreated control cells

Substance | % Inhibition
799298 (antisense k[5mC]*k[5mC]*kA*dA*dA*dA*dG*dG*d[5mC]*dT*dG*dA*d[5mC]*kT*k[5mC]*kG) [compound 799298] | 54%
799750 (antisense kA*kG*k[5mC]*d[5mC]*dA*dA*dG*dA*dG*d[5mC]*dT*dG*d[5mC]*kT*kT*kG) [compound 799750] | 0%
799606 (kT*kT*kT*dA*d[5mC]*dA*dA*dA*dA*d[5mC]*dT*d[5mC]*dT*k[5mC]*kT*kG; antisense) [compound 799606] | 50%
799628 (kA*k[5mC]*kA*d[5mC]*dA*d[5mC]*dA*d[5mC]*dA*dA*dG*d[5mC]*dT*kT*kG*k[5mC]; antisense) [compound 799628] | 38%
799766 (kA*kA*kA*d[5mC]*dA*dA*dA*dG*d[5mC]*dA*d[5mC]*dG*d[5mC]*kT*kA*kA; antisense) [compound 799766] | 35%
799609 (k[5mC]*k[5mC]*k[5mC]*d[5mC]*dA*dT*dG*dG*dA*dA*d[5mC]*dG*dA*kT*k[5mC]*kA; antisense) [compound 799609] | 41%
799587 (kT*kT*k[5mC]*dA*d[5mC]*dA*dG*dG*dT*d[5mC]*dA*d[5mC]*dA*kT*kG*kG; antisense) [compound 799587] | 42%
799275 (antisense k[5mC]*kA*kG*dT*dT*dA*dA*dT*d[5mC]*dA*dT*dT*dA*k[5mC]*kT*k[5mC]) [compound 799275] | 0%

Same assay, conditions: Hep3B cells, electroporation with 10,000 nM antisense oligonucleotide, approximately 24 hours, SMAD7 mRNA by RT-PCR (RTS5062), relative to untreated control cells

Substance | % Inhibition
830115 (kA*k[5mC]*k[5mC]*d[5mC]*dT*dA*dA*dA*d[5mC]*dT*dG*dA*dG*k[5mC]*k[5mC]*k[5mC]; antisense) [compound 830115] | 9%
830143 (antisense kG*kG*kT*dG*dT*dG*d[5mC]*dA*d[5mC]*d[5mC]*dA*dG*dG*kT*kG*kA) [compound 830143] | 62%
798679 (antisense k[5mC]*kT*k[5mC]*d[5mC]*dG*d[5mC]*dA*d[5mC]*dA*d[5mC]*d[5mC]*dA*dT*kG*kA*kA) [compound 798679] | 32%
830020 (antisense kG*kA*kA*dA*dG*dG*d[5mC]*d[5mC]*d[5mC]*dA*dA*d[5mC]*dA*kG*k[5mC]*k[5mC]) [compound 830020] | 23%
799862 (k[5mC]*k[5mC]*k[5mC]*dA*d[5mC]*d[5mC]*dG*d[5mC]*dA*dT*dG*d[5mC]*dG*kA*kT*k[5mC]; antisense) [compound 799862] | 14%
830198 (antisense kA*kG*kG*d[5mC]*dT*dA*d[5mC]*dA*d[5mC]*d[5mC]*dA*dA*dA*kG*kA*k[5mC]) [compound 830198] | 30%
830019 (antisense kA*kG*kG*d[5mC]*d[5mC]*d[5mC]*dA*dA*d[5mC]*dA*dG*d[5mC]*d[5mC]*kA*kA*kA) [compound 830019] | 16%
799371 (antisense k[5mC]*k[5mC]*k[5mC]*dT*dT*dT*d[5mC]*d[5mC]*dA*dT*dT*dA*dT*kT*k[5mC]*k[5mC]) [compound 799371] | 28%
798684 (antisense k[5mC]*kG*kT*dT*dT*dG*d[5mC]*d[5mC]*dT*dG*d[5mC]*dT*dA*kA*kG*kG) [compound 798684] | 51%
800024 (k[5mC]*kA*kA*dG*dG*dA*d[5mC]*dT*dA*dA*dG*dG*dA*kA*kG*kA; antisense) [compound 800024] | 18%
800102 (antisense kA*k[5mC]*kG*dA*dG*dA*d[5mC]*dA*dG*dA*dA*dA*dG*kA*kA*kG) [compound 800102] | 21%
799454 (antisense kT*kT*kA*dA*dA*dG*dA*d[5mC]*dA*dG*dA*dG*dG*kA*kG*k[5mC]) [compound 799454] | 55%

Same assay, conditions: Hep3B cells, electroporation with 10,000 nM antisense oligonucleotide, approximately 24 hours, primer probe set RTS5062, relative to untreated control cells

Substance | % inhibition of SMAD7 mRNA expression | % Inhibition
798947 (antisense kA*k[5mC]*kA*dG*dA*dA*d[5mC]*dA*d[5mC]*dA*dA*dA*d[5mC]*kG*kA*kG) [compound 798947] | 52% | –
799148 (antisense kT*kG*kG*dT*dA*d[5mC]*d[5mC]*dT*dT*dG*dG*dG*dT*kT*kA*kT) [compound 799148] | 29% | –
799114 (antisense k[5mC]*kA*kG*dG*dA*dT*dG*dG*dG*dA*dG*d[5mC]*dA*kG*kG*k[5mC]) [compound 799114] | – | 35%
799181 (antisense kG*kT*kT*dA*dG*dA*dA*dA*dA*dA*dT*dA*dG*k[5mC]*kT*kT) [compound 799181] | – | 37%
799327 (kG*k[5mC]*kA*d[5mC]*dA*d[5mC]*dT*d[5mC]*dT*d[5mC]*d[5mC]*d[5mC]*dA*kG*kG*kA; antisense) [compound 799327] | 52% | –
798934 (antisense kG*k[5mC]*kA*dA*dG*d[5mC]*dA*d[5mC]*dT*d[5mC]*dA*dG*dG*kA*kG*kG) [compound 798934] | 40% | –
799215 (kA*kG*k[5mC]*dA*dA*dA*dG*dT*dG*d[5mC]*dA*dT*d[5mC]*kT*kT*kT; antisense) [compound 799215] | 0% | –
798968 (antisense k[5mC]*kG*kA*dT*d[5mC]*dA*dT*dA*d[5mC]*d[5mC]*dT*dG*d[5mC]*k[5mC]*k[5mC]*k[5mC]) [compound 798968] | 62% | –

Same assay, conditions: Hep3B cells, electroporation, 10,000 nM antisense oligonucleotide, approximately 24 hours, RTS5062, relative to untreated control cells

Substance | % inhibition of SMAD7 mRNA expression
799307 (antisense kT*k[5mC]*kT*dA*dA*dA*d[5mC]*dA*dG*d[5mC]*dA*dT*dG*kA*kA*kA) [compound 799307] | 10%
799771 (kG*k[5mC]*kA*dT*dA*dT*dG*d[5mC]*d[5mC]*dA*d[5mC]*dT*dG*kA*kG*kA; antisense) [compound 799771] | 0%
799738 (antisense kT*k[5mC]*kA*dA*dA*dA*dA*dA*dT*dG*dT*d[5mC]*d[5mC]*k[5mC]*k[5mC]*kA) [compound 799738] | 50%
799754 (antisense kG*kG*k[5mC]*dT*dA*dA*dG*dT*dG*d[5mC]*d[5mC]*dA*dG*kG*kT*kG) [compound 799754] | 0%

Same assay, conditions: SMAD7 mRNA, Hep3B cells, 10,000 nM antisense oligonucleotide, electroporation, approximately 24 hours, primer probe set RTS5062, relative to untreated control cells

Substance | % Inhibition
829754 (antisense kT*k[5mC]*kT*d[5mC]*d[5mC]*d[5mC]*d[5mC]*dG*d[5mC]*dA*dG*d[5mC]*dT*k[5mC]*kG*k[5mC]) [compound 829754] | 49%
829763 (antisense kG*kT*kT*dT*d[5mC]*dT*dT*dG*dA*dG*d[5mC]*dA*d[5mC]*k[5mC]*kG*kA) [compound 829763] | 65%
829717 (antisense kA*kG*kT*d[5mC]*dT*d[5mC]*d[5mC]*d[5mC]*dG*dG*dA*dG*dG*k[5mC]*k[5mC]*kG) [compound 829717] | 28%

Same assay, conditions: SMAD7 mRNA, Hep3B cells, electroporation with 10,000 nM antisense oligonucleotide, approximately 24 hours, primer probe set RTS5062, relative to untreated control cells

Substance | % Inhibition
829899 (antisense kA*k[5mC]*kG*dG*dG*d[5mC]*dA*dG*d[5mC]*dT*dG*d[5mC]*dT*kG*kA*kT) [compound 829899] | 20%
829808 (kG*kG*kA*dG*dA*d[5mC]*dT*d[5mC]*dT*dA*dG*dT*dT*k[5mC]*kG*k[5mC]; antisense) [compound 829808] | 53%
829836 (k[5mC]*k[5mC]*kA*dG*dT*dG*dT*dG*dA*d[5mC]*d[5mC]*dG*dA*kT*k[5mC]*k[5mC]; antisense) [compound 829836] | 48%
829914 (antisense kA*k[5mC]*k[5mC]*dT*dT*dG*dG*dG*dT*dT*dA*dT*dG*kA*k[5mC]*kG) [compound 829914] | 35%
829961 (kT*kG*kA*dT*dT*dA*dT*dT*dA*dA*dT*dG*dG*kT*k[5mC]*kT; antisense) [compound 829961] | 14%
829862 (antisense k[5mC]*kT*kG*d[5mC]*dT*dG*d[5mC]*dG*dG*dT*dT*dG*dT*kA*k[5mC]*kA) [compound 829862] | 22%
830012 (antisense kG*k[5mC]*k[5mC]*dA*dG*dT*d[5mC]*dT*d[5mC]*dA*dA*dA*dT*kG*kG*kG) [compound 830012] | 37%
829829 (kT*k[5mC]*kT*dG*dA*dA*dA*dG*d[5mC]*d[5mC]*d[5mC]*d[5mC]*d[5mC]*k[5mC]*kA*kG; antisense) [compound 829829] | 11%
